Laboratory results as given in ChEMBL document CHEMBL1201862, “PubChem BioAssay data set” (2004).
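Briefly, cells in 96-well plates were exposed to five compound concentrations for 48 h, and endpoints were estimated by linear interpolation. Abbreviation: GI50, concentration required for 50% inhibition of growth.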 Activity calls are given as the source filed them. Rule as the data show it: active = GI50 up to about 1.1 µM and inactive = higher.

Key:
Experiment in all cases: NCI anticancer screen, dose series, 48 h
COLO 205 = tested on: COLO 205
HOP-62 = tested on: HOP-62
OVCAR-3 = tested on: OVCAR-3
SR = tested on: SR
SK-MEL-2 = tested on: SK-MEL-2
T47D = tested on: T47D
MDA-N = tested on: MDA-N
MDA-MB-435 = tested on: MDA-MB-435
SNB-19 = tested on: SNB-19
Hs-578T = tested on: Hs-578T
MDA-MB-231 = tested on: MDA-MB-231
TK-10 = tested on: TK-10
NCI/ADR-RES = tested on: NCI/ADR-RES
NCI-H460 = tested on: NCI-H460
SW-620 = tested on: SW-620
UO-31 = tested on: UO-31
786-0 = tested on: 786-0
LOX IMVI = tested on: LOX IMVI
SK-OV-3 = tested on: SK-OV-3
NCI-H226 = tested on: NCI-H226

Measured: GI50

Clc1ccc(/C=C/c2nc3ccccc3s2)cc1Cl
inactive: COLO 205 54.1 µM | HOP-62 22.9 µM | OVCAR-3 50.6 µM | SR > 100 µM | SK-MEL-2 > 10 µM | T47D 1.66 µM | MDA-N 70.5 µM | MDA-MB-435 > 100 µM | SNB-19 30.5 µM | Hs-578T 23.7 µM | MDA-MB-231 16.2 µM | TK-10 34.4 µM | NCI/ADR-RES 63.2 µM | NCI-H460 53.5 µM | SW-620 1.73 µM | UO-31 22.1 µM | 786-0 15 µM | LOX IMVI 1.42 µM | SK-OV-3 50.1 µM

CC(NNC(=O)c1cc[n+]([BH2-]C#N)cc1)c1ccccc1F (stereo unspecified)
inactive: COLO 205 > 100 µM | NCI-H226 > 100 µM | OVCAR-3 > 100 µM | SR > 100 µM | SK-MEL-2 > 100 µM | T47D > 100 µM | MDA-N > 100 µM | MDA-MB-435 > 100 µM | SNB-19 > 100 µM | Hs-578T > 100 µM | MDA-MB-231 > 100 µM | TK-10 > 100 µM | NCI/ADR-RES > 100 µM | NCI-H460 > 100 µM | SW-620 > 100 µM | UO-31 > 100 µM | 786-0 > 100 µM | LOX IMVI > 100 µM

CCOC(=O)c1nnsc1NC(=O)NCCCCCCn1c(=O)n(CCCCCCNC(=O)Nc2snnc2C(=O)OCC)c(=O)n(CCCCCCNC(=O)Nc2snnc2C(=O)OCC)c1=O
inactive: COLO 205 > 100 µM | HOP-62 25.4 µM | NCI-H226 18.1 µM | OVCAR-3 57.8 µM | SR > 100 µM | SK-MEL-2 > 100 µM | T47D 33 µM | MDA-N 36.8 µM | MDA-MB-435 63.7 µM | SNB-19 18.6 µM | Hs-578T 13.7 µM | MDA-MB-231 15.2 µM | NCI/ADR-RES > 100 µM | NCI-H460 21.5 µM | SW-620 67.6 µM | UO-31 45.4 µM | 786-0 16.7 µM | SK-OV-3 40.2 µM

O=C(/C=C(\N=P(c1ccccc1)(c1ccccc1)c1ccccc1)C(F)(F)C(F)(F)C(F)(F)C(F)(F)C(F)(F)C(F)(F)C(F)(F)F)c1ccccc1
inactive: COLO 205 > 100 µM | HOP-62 > 100 µM | OVCAR-3 > 100 µM | SR > 100 µM | SK-MEL-2 > 100 µM | T47D > 100 µM | MDA-N > 100 µM | MDA-MB-435 > 100 µM | SNB-19 > 100 µM | Hs-578T > 100 µM | MDA-MB-231 > 10 µM | TK-10 > 100 µM | NCI/ADR-RES > 100 µM | NCI-H460 > 100 µM | SW-620 > 100 µM | UO-31 > 100 µM | 786-0 > 100 µM | LOX IMVI > 100 µM | SK-OV-3 > 100 µM

O=Nc1c(-c2c(O)[nH]c3ccccc23)[nH]c2ccccc12 [INDIRUBIN-3-MONOXIME]
inactive: COLO 205 12.5 µM | HOP-62 7.23 µM | OVCAR-3 3.88 µM | SR 4.85 µM | SK-MEL-2 1.91 µM | T47D 4.3 µM | MDA-N 4.58 µM | MDA-MB-435 3.79 µM | SNB-19 25.8 µM | Hs-578T 4.47 µM | MDA-MB-231 3.38 µM | TK-10 5.79 µM | NCI/ADR-RES 5.77 µM | NCI-H460 3.53 µM | SW-620 4.79 µM | UO-31 2.38 µM | 786-0 7.57 µM | LOX IMVI 3.86 µM | SK-OV-3 1.56 µM

CCOC(=O)C1CCCC1S(=O)(=O)c1ccc(C)cc1 (stereo unspecified)
inactive: COLO 205 > 100 µM | HOP-62 > 100 µM | NCI-H226 > 100 µM | OVCAR-3 > 100 µM | SR > 100 µM | T47D > 100 µM | MDA-N > 100 µM | MDA-MB-435 79.4 µM | SNB-19 > 100 µM | Hs-578T > 100 µM | MDA-MB-231 > 100 µM | TK-10 > 100 µM | NCI/ADR-RES > 100 µM | NCI-H460 > 100 µM | SW-620 > 100 µM | UO-31 > 100 µM | 786-0 > 100 µM | LOX IMVI > 100 µM | SK-OV-3 > 100 µM

CC1(O)C(=O)OC2CC([C@]3(O)CCC4[C@@H]5C[C@H]6O[C@]67[C@@H](O)C=CC(=O)[C@]7(C)C5CC[C@@]43C)C1(C)C2 (stereo partly specified)
inactive: COLO 205 6.93 µM | HOP-62 52.7 µM | OVCAR-3 15.8 µM | SR 2.69 µM | SK-MEL-2 13.8 µM | T47D 5.97 µM | MDA-N 12.3 µM | MDA-MB-435 15.7 µM | SNB-19 47.2 µM | Hs-578T 26.3 µM | MDA-MB-231 16.7 µM | TK-10 8.73 µM | NCI/ADR-RES > 50.9 µM | NCI-H460 30.5 µM | SW-620 3.07 µM | UO-31 22.9 µM | 786-0 12.9 µM | LOX IMVI 4.54 µM | SK-OV-3 47.9 µM
